Source: PubChem BioAssay AID2060898 (Molecular Pharmacology Branch, DTP, NCI, 2025)

System: 616215-338-R-J1-PDC complex spheroid viability
Assay: Anticancer human tumor 616215-338-R-J1-PDC patient-derived colon adenocarcinoma cell line growth inhibition [RAS]
Settings: for IC50: curve of first compound; for viability, T/C: stronger effect = lower value
Source text: RAS pathway inhibitors in Combinations in Complex Spheroids
A high-throughput screen of multi-cell type tumor spheroids was designed to identify active combinations of RAS pathway inhibitors and targeted small molecules. Complex spheroids include a stromal component modeled by human endothelial cells (HUVEC) and fibroblasts modeled by human mesenchymal stem cells (MSCs). The concentration ranges selected for each drug and investigational agent were based upon clinically achievable concentrations if the clinical Cmax of the agent was known.
Compounds. The drugs and investigational agents: abemaciclib (NSC768073), cobimetinib (NSC768068), divarasib (GDC6063, NSC841802), docetaxel (NSC628503), GDC-1971 (RLY-1971, NSC841576), gemcitabine (NSC613327), inavolisib (NSC800729), ipatasertib (NSC767898), KB-0742 (NSC834161), MRTX-1133 (NSC836407), osimertinib (NSC779217), RMC-4630 (NSC839698), RMC-6236 (NSC851965), RMC-6291 (NSC852671), Ro-3306 (NSC812927), sapanisertib (NSC764658), SN-38 (NSC673596), staurosporine (NSC755774), SY5609 (NSC837396), and tovorafenib (DAY101, NSC766906), were obtained from the National Cancer Institute (NCI) Developmental Therapeutics Program Chemical Repository. The FDA-approved anticancer drug set is available from the NCI Developmental Therapeutics Program. […] The stock solutions were prepared in dimethyl sulfoxide (DMSO, Sigma-Aldrich, St. Louis, MO, cat. D2650) at 800-fold the tested concentration and stored at -70 degrees C prior to their use. All drugs and investigational agents were tested over a range starting from a high concentration at or near the clinical Cmax and decreasing in half-log increments. If the clinical Cmax for an agent had not been determined, the highest concentration tested was 10 microM.
Cell Culture. All cells were maintained in an incubator at 37 degrees C and 5% CO2 with 95% humidity. The PDC lines were cultured according to standard operating procedures established by the NCI PDMR. All PDCs were thawed and cultured in Matrigel-coated flasks prepared with a working solution of 1X Ham's F-12 nutrient mix, without supplementation (Invitrogen, Waltham, MA, cat. 11765054), 100 U/mL penicillin-streptomycin (Invitrogen, cat. 15140122), and 2.5% Matrigel (Corning Inc., Corning, NY, cat. 354248) for the first three passages. The 362531-283-R-J2-PDC and 782815-120-R-J1-PDC lines were cultured in 6C/Colon 1B media, which includes advanced DMEM/F-12 (Thermo Fisher Scientific, cat. 12634028), 10 mM HEPES (Thermo Fisher Scientific, cat. 15630080), 1X GlutaMAX supplement (Thermo Fisher Scientific, cat. 35050061), 0.1 mg/mL primocin (InvivoGen, San Diego, CA, cat. ant-pm-2), 10% defined fetal bovine serum, heat inactivated (HyClone Laboratories Inc., Logan, UT, cat. SH30070.03HI), 50% L-WRN conditioned media (ATCC, cat. CRL-3276), 1.25 mM N-Acetyl-L-cysteine (Sigma-Aldrich, cat. A9165), 10 mM nicotinamide (Sigma-Aldrich, cat. N0636), 1X B-27 supplement (Thermo Fisher Scientific, cat. 17504044), 1X N-2 supplement (Thermo Fisher Scientific, cat. 17502048), 50 ng/mL human EGF (Thermo Fisher Scientific, cat. PHG0311), and 10 microM Y-27632 dihydrochloride (Tocris Bioscience, cat. 1254). The K12877-001-R-J1-PDC line was cultured in 6I media, which includes all 6C/Colon 1B media plus 10 ng/mL human FGF-10 (PeproTech, cat. 100-26), 1 ng/mL human FGF-2 (PeproTech, cat. 100-18B), 1 µM prostaglandin E2 (Tocris Bioscience, cat. 2296), […] hydrocortisone (Sigma-Aldrich, cat. H4001), and […] bovine insulin (Sigma-Aldrich, cat. I6634). The K86415-001-R-J1-PDC line was cultured in 6D media, which includes all 6C/Colon 1B media components minus the L-WRN conditioned media. The 485176-168-R4-J1-PDC was cultured in PANC media, which includes all 6C/Colon 1B media plus 100 ng/mL human FGF-10 (PeproTech, cat. 100-26), 500 nM SB-431542 (Selleckchem, cat. S1067), and 10 nM gastrin (Tocris Bioscience, cat. 3006). […]

[1] = second compound 0.0316 µM, first compound 0.0316 µM
[2] = second compound 0.0316 µM, first compound 0.1 µM
[3] = second compound 0.0316 µM, first compound 0.316 µM
[4] = second compound 0.0316 µM, first compound 1 µM
[5] = second compound 0.0316 µM, first compound 3.16 µM
[6] = second compound 0.0316 µM, first compound 10 µM
[7] = second compound 0.1 µM, first compound 0.0316 µM
[8] = second compound 0.1 µM, first compound 0.1 µM
[9] = second compound 0.1 µM, first compound 0.316 µM
[10] = second compound 0.1 µM, first compound 1 µM
[11] = second compound 0.1 µM, first compound 3.16 µM
[12] = second compound 0.1 µM, first compound 10 µM
[13] = second compound 0.316 µM, first compound 0.0316 µM
[14] = second compound 0.316 µM, first compound 0.1 µM
[15] = second compound 0.316 µM, first compound 0.316 µM
[16] = second compound 0.316 µM, first compound 1 µM
[17] = second compound 0.316 µM, first compound 3.16 µM
[18] = second compound 0.316 µM, first compound 10 µM
[19] = second compound 1 µM, first compound 0.0316 µM
[20] = second compound 1 µM, first compound 0.1 µM
[21] = second compound 1 µM, first compound 0.316 µM
[22] = second compound 1 µM, first compound 1 µM
[23] = second compound 1 µM, first compound 3.16 µM
[24] = second compound 1 µM, first compound 10 µM
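Further: spheroids exposed to agents for seven days before viability readout.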
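Wherever viability, T/C is given: 100% = DMSO vehicle control viability.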

CC(Nc1ccc2c(c1)OCCn1cc(N3C(=O)OCC3C(F)F)nc1-2)C(N)=O (centres undefined) + C=CC(=O)N1CCN(c2nc(OCC3CCCN3C)nc3c(F)c(-c4nc(N)cc(C)c4C(F)(F)F)c(Cl)cc23)C(C)C1
IC50 (second compound 0.00316 µM): > 10000 nM
IC50 (second compound 0.01 µM): > 10000 nM
IC50 (second compound 0.0316 µM): > 10000 nM
IC50 (second compound 0.1 µM): > 10000 nM
IC50 (second compound 0.316 µM): > 10000 nM
IC50 (second compound 1 µM): > 10000 nM
viability, T/C (second compound 0.00316 µM, first compound 0.0316 µM): 106%
viability, T/C (second compound 0.00316 µM, first compound 0.1 µM): 122%
viability, T/C (second compound 0.00316 µM, first compound 0.316 µM): 109%
viability, T/C (second compound 0.00316 µM, first compound 1 µM): 101%
viability, T/C (second compound 0.00316 µM, first compound 3.16 µM): 100%
viability, T/C (second compound 0.00316 µM, first compound 10 µM): 82.2%
viability, T/C (second compound 0.01 µM, first compound 0.0316 µM): 106%
viability, T/C (second compound 0.01 µM, first compound 0.1 µM): 115%
viability, T/C (second compound 0.01 µM, first compound 0.316 µM): 110%
viability, T/C (second compound 0.01 µM, first compound 1 µM): 111%
viability, T/C (second compound 0.01 µM, first compound 3.16 µM): 105%
viability, T/C (second compound 0.01 µM, first compound 10 µM): 85.9%
viability, T/C [1]: 110%
viability, T/C [2]: 114%
viability, T/C [3]: 119%
viability, T/C [4]: 115%
viability, T/C [5]: 93.3%
viability, T/C [6]: 80.1%
viability, T/C [7]: 111%
viability, T/C [8]: 108%
viability, T/C [9]: 107%
viability, T/C [10]: 131%
viability, T/C [11]: 101%
viability, T/C [12]: 77.9%
viability, T/C [13]: 109%
viability, T/C [14]: 103%
viability, T/C [15]: 111%
viability, T/C [16]: 109%
viability, T/C [17]: 103%
viability, T/C [18]: 86.2%
viability, T/C [19]: 106%
viability, T/C [20]: 107%
viability, T/C [21]: 109%
viability, T/C [22]: 119%
viability, T/C [23]: 98%
viability, T/C [24]: 73.4%

CC1(O)CCCC1n1c(=O)c(C(F)F)cc2cnc(NC3CCN(S(C)(=O)=O)CC3)nc21 (centres undefined) + C#Cc1c(F)ccc2cc(O)cc(-c3ncc4c(N5CC6CCC(C5)N6)nc(OCC56CCCN5CC(F)C6)nc4c3F)c12
IC50 (second compound 0.0316 µM): 1070 nM
IC50 (second compound 0.1 µM): 924 nM
IC50 (second compound 0.316 µM): 833 nM
IC50 (second compound 1 µM): 255 nM
IC50 (second compound 3.16 µM): 132 nM
IC50 (second compound 10 µM): 44 nM
viability, T/C [1]: 110%
viability, T/C [2]: 114%
viability, T/C [3]: 53.5%
viability, T/C [4]: 49.1%
viability, T/C [5]: 45.4%
viability, T/C [6]: 1.06%
viability, T/C [7]: 107%
viability, T/C [8]: 118%
viability, T/C [9]: 50.2%
viability, T/C [10]: 46.8%
viability, T/C [11]: 39.4%
viability, T/C [12]: 0.75%
viability, T/C [13]: 117%
viability, T/C [14]: 112%
viability, T/C [15]: 54.5%
viability, T/C [16]: 44%
viability, T/C [17]: 37.9%
viability, T/C [18]: 2.34%
viability, T/C [19]: 111%
viability, T/C [20]: 94.2%
viability, T/C [21]: 38.8%
viability, T/C [22]: 45.9%
viability, T/C [23]: 50.5%
viability, T/C [24]: 0.81%
viability, T/C (second compound 3.16 µM, first compound 0.0316 µM): 90.4%
viability, T/C (second compound 3.16 µM, first compound 0.1 µM): 49.9%
viability, T/C (second compound 3.16 µM, first compound 0.316 µM): 29.8%
viability, T/C (second compound 3.16 µM, first compound 1 µM): 35.8%
viability, T/C (second compound 3.16 µM, first compound 3.16 µM): 31.4%
viability, T/C (second compound 3.16 µM, first compound 10 µM): 2.44%
viability, T/C (second compound 10 µM, first compound 0.0316 µM): 59.5%
viability, T/C (second compound 10 µM, first compound 0.1 µM): 23.7%
viability, T/C (second compound 10 µM, first compound 0.316 µM): 26.1%
viability, T/C (second compound 10 µM, first compound 1 µM): 22.2%
viability, T/C (second compound 10 µM, first compound 3.16 µM): 21.8%
viability, T/C (second compound 10 µM, first compound 10 µM): 1.18%
